In brackets after ≈: the same amount, converted by molar mass. Where two headings read alike, the source gives them in different places.
Legend:
Protein Kinase C = assay: Protein kinase C inhibitory activity (method of Kikkawa et al.; crude enzyme from rat brain, Histone Type II S phosphorylation); type: biochemical; conditions: crude enzyme partially purified from rat brain; [γ-32P]ATP, 30° C., 3 minutes, pH 7.5
Experimental: Protein kinase C inhibitory activity
The protein kinase C inhibitory activity was measured by the method of Kikkawa, et al. [Journal of Biological Chemistry, 257, 13341 (1982)].
That is, 10 μl of a test solution containing a UCN-1028D derivative was added to 250 μl of a solution containing 2.5 μmoles of magnesium acetate, 50 μg of Histone Type II S (manufactured by Sigma Co., Ltd.), 20 μg of phosphatidyl serine, 0.8 μg of diolein, 25 nmoles of CaCl2, 5 μg of crude enzyme (partially purified from rat brain according to the method of Kikkawa, et al.) and 5 μmoles of Tris-hydrochloride buffer (pH 7.5), followed by incubation at 30° C. for 3 minutes. Then, phosphorylation was initiated by addition of 1.25 nmoles of [γ-^32 P]ATP (5 to 10×10^3 cpm/nmole), followed by incubation at 30° C. for 3 minutes The reaction was stopped by adding 25% trichloroacetic acid (TCA), and the reaction solution was filtered through a cellulose acetate membrane (pore size: 0.45 μm) (manufactured by Toyo Filter Paper Co., Ltd.). After the membrane was washed four times with 5% TCA, radioactivity remaining on the membrane was measured. As a control, the same procedure as above was repeated without addition of the test solution and radioactivity was likewise measured. The concentration of the test solution showing 50% inhibition as compared with the control was expressed as IC50.

BALB 3T3/H-ras = assay: Anti-tumor activity: growth inhibition of BALB 3T3 cells transformed with H-ras (Giemsa staining); type: cell-based; conditions: for IC50: Mus musculus, BALB/3T3, 72 h, read-out: IC50 BALB 3T3/H-ras Inhibitory Activity
Experimental: The anti-tumor activity was determined using BALB 3T3 cells transformed with the carcinogenic gene H-ras (hereafter referred to as BALB 3T3/H-ras).
BALB 3T3/H-ras cells were suspended in a medium comprising DME medium (manufactured by Nissui Pharmaceutical Co., Ltd.) and 10% fetal calf serum (hereafter referred to as medium A) to a concentration of 3.0×10^4 /cells ml. The cell suspension thus prepared was put into wells of a 96-well microtiter plate in an amount of 0.1 ml per well. After culturing at 37° C. for 20 hours in a CO2 -incubator, 0.1 ml each of a test solution appropriately diluted with medium A was added to each well. The cells were further cultured at 37° C. for 72 hours in the CO2 -incubator and the culture supernatant was removed. After being washed once with physiological saline, the residue was treated with 0.1 ml of methanol for 10 minutes to fix the cells. Thereafter, the cells were stained with 0.1 ml of Giemsa staining solution [Giemsa staining stock solution (Merck Art 9204; manufactured by Merck Inc.) : physiological saline=1 : 10] for 5 minutes. After the staining solution was removed, the residue was washed once with 0.2 ml of water. The pigment was extracted with 0.2 ml of 0.1 N hydrochloric acid and the absorbance at 620 nm was measured with a microplate reader. By comparing the absorbance of untreated cells with those of the cells treated with the test compound at known concentrations, the concentration of the test compound at which the growth of the cells is inhibited by 50% (IC50) was calculated.

[1] = growth inhibition, 72 hours, 37° C., Giemsa staining, absorbance at 620 nm

| Compound | IC50 Protein Kinase C Inhibitory Activity (Protein Kinase C) | IC50 BALB 3T3/H-ras Inhibitory Activity (BALB 3T3/H-ras; [1]) | IC50 (BALB 3T3/H-ras) | IC50 (BALB 3T3/H-ras; [1]) |
| --- | --- | --- | --- | --- |
| COc1c(C[C@@H](C)O)c2c3c(C[C@@H](C)O)c(OC)c(=O)c4c(O)cc(OC)c(c5c(OC)cc(O)c(c1=O)c52)c43 [Compound 45, UCN-1028D] | 3.5 µg/mL (≈ 6.36 µM) | 2.2 µg/mL (≈ 4 µM) | – | – |
| COc1c(C[C@@H](C)OC(=O)c2ccc(C)cc2)c2c3c(C[C@@H](C)OC(=O)c4ccc(C)cc4)c(OC)c(=O)c4c(O)cc(OC)c(c5c(OC)cc(O)c(c1=O)c52)c43 [Compound 29, 14,17-bis-O-p-methylbenzoyl UCN-1028D] | 0.06 µg/mL (≈ 0.0763 µM) | – | 0.022 µg/mL (≈ 0.028 µM) | – |
| CCCCCCC(=O)O[C@H](C)Cc1c(OC)c(=O)c2c(O)cc(OC)c3c4c(OC)cc(O)c5c(=O)c(OC)c(C[C@@H](C)OC(=O)CCCCCC)c(c1c23)c54 [Compound 4, 14,17-di-O-heptanoyl UCN-1028D] | 0.03 µg/mL (≈ 0.0387 µM) | – | 0.52 µg/mL (≈ 0.671 µM) | – |
| COc1c(C[C@@H](C)OC(=O)[C@@H]2CCCN2)c2c3c(C[C@@H](C)OC(=O)[C@@H]4CCCN4)c(OC)c(=O)c4c(O)cc(OC)c(c5c(OC)cc(O)c(c1=O)c52)c43 [Compound 20, 14,17-di-O-L-prolyl UCN-1028D bistrifluoroacetate] | 0.33 µg/mL (≈ 0.443 µM) | – | 3.2 µg/mL (≈ 4.3 µM) | – |
| COc1c(C[C@@H](C)OC(=O)[C@H](N)c2ccccc2)c2c3c(C[C@@H](C)OC(=O)[C@H](N)c4ccccc4)c(OC)c(=O)c4c(O)cc(OC)c(c5c(OC)cc(O)c(c1=O)c52)c43 [Compound 16, 14,17-di-O-D-phenylglycyl UCN-1028D bistrifluoroacetate] | 0.17 µg/mL (≈ 0.208 µM) | – | 0.72 µg/mL (≈ 0.881 µM) | – |
| COc1c(C[C@@H](C)OC(=O)c2ccc(OC(C)=O)cc2)c2c3c(C[C@@H](C)OC(=O)c4ccc(OC(C)=O)cc4)c(OC)c(=O)c4c(O)cc(OC)c(c5c(OC)cc(O)c(c1=O)c52)c43 [Compound 24, 14,17-bis-O-p-acetoxybenzoyl UCN-1028D] | 0.082 µg/mL (≈ 0.0937 µM) | – | 0.048 µg/mL (≈ 0.0549 µM) | – |
| COc1c(C[C@@H](C)OC(=O)COc2ccccc2)c2c3c(C[C@@H](C)OC(=O)COc4ccccc4)c(OC)c(=O)c4c(O)cc(OC)c(c5c(OC)cc(O)c(c1=O)c52)c43 [Compound 13, 14,17-bis-O-phenyloxyacetyl UCN-1028D] | 0.08 µg/mL (≈ 0.0977 µM) | – | 0.03 µg/mL (≈ 0.0366 µM) | – |
| COc1c(C[C@@H](C)OC(=O)c2ccc(O)cc2)c2c3c(C[C@@H](C)OC(=O)c4ccc(O)cc4)c(OC)c(=O)c4c(O)cc(OC)c(c5c(OC)cc(O)c(c1=O)c52)c43 [Compound 26, 14,17-bis-O-p-hydroxybenzoyl UCN-1028D] | 0.084 µg/mL (≈ 0.106 µM) | – | 0.13 µg/mL (≈ 0.164 µM) | – |
| COc1c(C[C@@H](C)O)c2c3c(C[C@@H](C)O)c(OC)c(=O)c4c(O)cc(OC)c(c5c(OC)cc(O)c(c1=O)c52)c43 [Compound 43, UCN-1028 iso-D] | 0.74 µg/mL (≈ 1.34 µM) | 1.0 µg/mL (≈ 1.82 µM) | – | – |
| COc1c(C[C@@H](C)OC(=O)CCCCCN)c2c3c(C[C@@H](C)OC(=O)CCCCCN)c(OC)c(=O)c4c(O)cc(OC)c(c5c(OC)cc(O)c(c1=O)c52)c43 [Compound 21, 14,17-bis-O-6-aminohexanoyl UCN-1028D bis-trifluoroacetate] | 0.08 µg/mL (≈ 0.103 µM) | – | 2.5 µg/mL (≈ 3.22 µM) | – |
| CCCNC(=O)O[C@H](C)Cc1c(OC)c(=O)c2c(O)cc(OC)c3c4c(OC)cc(O)c5c(=O)c(OC)c(C[C@@H](C)OC(=O)NCCC)c(c1c23)c54 [Compound 41, 14,17-bis-O-propylaminocarbonyl UCN-1028D] | 0.94 µg/mL (≈ 1.3 µM) | – | 0.68 µg/mL (≈ 0.943 µM) | – |
| COc1c(C[C@@H](C)OC(=O)[C@@H](N)CC(C)C)c2c3c(C[C@@H](C)OC(=O)[C@@H](N)CC(C)C)c(OC)c(=O)c4c(O)cc(OC)c(c5c(OC)cc(O)c(c1=O)c52)c43 [Compound 14, 14,17-di-O-L-leucyl UCN-1028D bistrifluoroacetate] | 0.21 µg/mL (≈ 0.27 µM) | – | 0.45 µg/mL (≈ 0.579 µM) | – |
| COc1c(C[C@@H](C)OC(=O)[C@@H](N)Cc2ccccc2)c2c3c(C[C@@H](C)OC(=O)[C@@H](N)Cc4ccccc4)c(OC)c(=O)c4c(O)cc(OC)c(c5c(OC)cc(O)c(c1=O)c52)c43 [Compound 17, 14,17-di-O-L-phenylalanyl UCN-1028D bistrifluoroacetate] | 0.088 µg/mL (≈ 0.104 µM) | – | 0.35 µg/mL (≈ 0.414 µM) | – |
| C=CCCC(=O)O[C@H](C)Cc1c(OC)c(=O)c2c(O)cc(OC)c3c4c(OC)cc(O)c5c(=O)c(OC)c(C[C@@H](C)OC(=O)CCC=C)c(c1c23)c54 [Compound 7, 14,17-di-O-pentenoyl UCN-1028D] | 0.06 µg/mL (≈ 0.0839 µM) | – | 0.17 µg/mL (≈ 0.238 µM) | – |
| COc1c(C[C@@H](C)OC(=O)c2ccc([N+](=O)[O-])cc2)c2c3c(C[C@@H](C)OC(=O)c4ccc([N+](=O)[O-])cc4)c(OC)c(=O)c4c(O)cc(OC)c(c5c(OC)cc(O)c(c1=O)c52)c43 [Compound 30, 14,17-bis-O-p-nitrobenzoyl UCN-1028D] | 0.11 µg/mL (≈ 0.13 µM) | – | 0.07 µg/mL (≈ 0.0825 µM) | – |
| COc1c(C[C@@H](C)OC(=O)OCc2ccccc2)c2c3c(C[C@@H](C)OC(=O)OCc4ccccc4)c(OC)c(=O)c4c(O)cc(OC)c(c5c(OC)cc(O)c(c1=O)c52)c43 [Compound 37, 14,17-bis-O-benzyloxycarbonyl UCN-1028D] | 0.052 µg/mL (≈ 0.0635 µM) | – | 0.04 µg/mL (≈ 0.0489 µM) | – |
| COc1c(C[C@@H](C)OC(=O)c2ccncc2)c2c3c(C[C@@H](C)OC(=O)c4ccncc4)c(OC)c(=O)c4c(O)cc(OC)c(c5c(OC)cc(O)c(c1=O)c52)c43 [Compound 33, 14,17-di-O-isonicotinyl UCN-1028D] | 0.15 µg/mL (≈ 0.197 µM) | – | 0.038 µg/mL (≈ 0.05 µM) | – |
| COc1c(C[C@@H](C)OC(=O)c2cccc3ccccc23)c2c3c(C[C@@H](C)OC(=O)c4cccc5ccccc45)c(OC)c(=O)c4c(O)cc(OC)c(c5c(OC)cc(O)c(c1=O)c52)c43 [Compound 31, 14,17-di-O-1-naphthoyl UCN-1028D] | 0.19 µg/mL (≈ 0.221 µM) | – | 1.5 µg/mL (≈ 1.75 µM) | – |
| COc1c(C[C@@H](C)OC(=O)Cc2cccc3ccccc23)c2c3c(C[C@@H](C)OC(=O)Cc4cccc5ccccc45)c(OC)c(=O)c4c(O)cc(OC)c(c5c(OC)cc(O)c(c1=O)c52)c43 [Compound 12, 14,17-bis-O-1-naphthylacetyl UCN-1028D] | 0.05 µg/mL (≈ 0.0564 µM) | – | 1.3 µg/mL (≈ 1.47 µM) | – |
| COc1c(C[C@@H](C)OS(=O)(=O)c2ccc(C)cc2)c2c3c(C[C@@H](C)OS(=O)(=O)c4ccc(C)cc4)c(OC)c(=O)c4c(O)cc(OC)c(c5c(OC)cc(O)c(c1=O)c52)c43 [Compound 40, 14,17-bis-O-p-toluenesulfonyl UCN-1028D] | 0.066 µg/mL (≈ 0.0768 µM) | – | 0.04 µg/mL (≈ 0.0466 µM) | – |
| CCCCCC(=O)O[C@H](C)Cc1c(OC)c(=O)c2c(O)cc(OC)c3c4c(OC)cc(O)c5c(=O)c(OC)c(C[C@@H](C)OC(=O)CCCCC)c(c1c23)c54 [Compound 3, 14,17-di-O-hexanoyl UCN-1028D] | 0.035 µg/mL (≈ 0.0469 µM) | – | 0.12 µg/mL (≈ 0.161 µM) | – |
| COc1c(C[C@@H](C)OC(=O)c2ccccc2)c2c3c(C[C@@H](C)OC(=O)c4ccccc4)c(OC)c(=O)c4c(O)cc(OC)c(c5c(OC)cc(O)c(c1=O)c52)c43 [Compound 44, 14,17-di-O-benzoyl UCN-1028 iso-D] | 0.025 µg/mL (≈ 0.0329 µM) | – | – | 0.52 µg/mL (≈ 0.685 µM) |
